From patent US8080657B2, “Compounds of reverse turn mimetics and the use thereof” (Choongwae Pharma Corporation, priority 2008, dated 2011) come the findings set out here.

For the first experiment, the system named is Wnt signaling. In words: TopFlash reporter gene bioassay in SW480 cells. The experiment is classed as cell-based. To be noted: Homo sapiens, SW480, TopFlash reporter gene assay, inhibition of Wnt signaling; read-out: RGA, IC50 (μM) TopF.
On to `C=CCN1CC(=O)N2[C@@H](Cc3ccc(O)cc3)C(=O)N(Cc3ccc(OCCCC)cc3)C[C@@H]2N1C(=O)NCc1ccccc1` [compound 214], for which the IC50 was found to be 3.72 ± 0.47 µM.
The same measure, in the same setting: under `C=CCN1CC(=O)N2[C@@H](Cc3ccc(O)cc3)C(=O)N(Cc3cccc(C(=O)NNC(=O)OC(C)(C)C)c3)C[C@@H]2N1C(=O)NCc1ccccc1` [compound 210] stands 3.57 ± 0.89 µM; under `C=CCN1CC(=O)N2[C@@H](Cc3ccc(NC(N)=O)cc3)C(=O)N(Cc3cccc4scnc34)C[C@@H]2N1C(=O)NCc1ccccc1` [compound 162], 15.1 ± 3.34 µM.
The same measure, in the same setting: to `C=CCN1CC(=O)N2[C@@H](Cc3ccc(O)cc3)C(=O)N(Cc3ccc(F)c(-c4cccnc4)c3)C[C@@H]2N1C(=O)NCc1ccccc1` [compound 28] belongs 0.52 ± 0.06 µM; to `C=CCN1CC(=O)N2[C@@H](Cc3ccc(O)cc3)C(=O)N(Cc3c[nH]c4ccc(OC)cc34)C[C@@H]2N1C(=O)NCc1ccccc1` [compound 253], 7.1 ± 0.99 µM.
With `C=CCN1CC(=O)N2[C@@H](Cc3ccc(O)cc3)C(=O)N(Cc3cccc4ccn(Cc5cccc([N+](=O)[O-])c5)c34)C[C@@H]2N1C(=O)NCc1ccccc1` [compound 204], the IC50 was found to be 3.13 ± 0.44 µM.
Still for that read-out and setting: under `C=CCN1CC(=O)N2[C@@H](Cc3ccc(O)cc3)C(=O)N(Cc3cccc(-c4ccccc4)c3)C[C@@H]2N1C(=O)NCc1ccccc1` [compound 144] stands 1.94 ± 0.48 µM; under `C=CCN1CC(=O)N2[C@@H](Cc3ccc(O)cc3)C(=O)N(Cc3cc(C(C)(C)C)cc(C(C)(C)C)c3OC)C[C@@H]2N1C(=O)NCc1ccccc1` [compound 150], 10.2 ± 1.55 µM.
Same read-out and setting: under `C=CCN1CC(=O)N2[C@@H](Cc3ccc(O)cc3)C(=O)N(Cc3cccc(C(=O)OC)c3[N+](=O)[O-])C[C@@H]2N1C(=O)NCc1ccccc1` [compound 131] stands 1.66 ± 0.27 µM.
The same measure, in the same setting: under `C=CCN1CC(=O)N2[C@@H](Cc3ccc(O)cc3)C(=O)N(Cc3cccc(OC)c3Oc3cccc(F)c3)C[C@@H]2N1C(=O)NCc1ccccc1` [compound 252] stands 7.05 ± 0.87 µM; under `C=CCN1CC(=O)N2[C@@H](Cc3ccc(O)cc3)C(=O)N(Cc3ccc(OC)c(F)c3)C[C@@H]2N1C(=O)NCc1ccccc1` [compound 193], 2.86 ± 0.49 µM; under `C=CCN1CC(=O)N2[C@@H](Cc3ccc(O)cc3)C(=O)N(Cc3cccc4c(-c5ccccc5)c[nH]c34)C[C@@H]2N1C(=O)NCc1ccccc1` [compound 10], 0.3 ± 0.06 µM.
Turning to `C#Cc1ccc(CNC(=O)N2[C@H]3CN(Cc4cccc(OC)c4OC)C(=O)[C@H](Cc4ccc(O)cc4)N3C(=O)CN2CC=C)cc1` [compound 184], the IC50 turned out to be 2.56 ± 0.29 µM.
The same measure, in the same setting: to `C=CCN1CC(=O)N2[C@@H](Cc3ccc(O)cc3)C(=O)N(Cc3cccc(OC)c3OC)C[C@@H]2N1C(=O)NCc1ccccn1` [compound 262] belongs 8.48 ± 1.37 µM; to `C=CCN1CC(=O)N2[C@@H](Cc3ccc(O)cc3)C(=O)N(Cc3cccc(-c4cccc(C(N)=O)c4)c3)C[C@@H]2N1C(=O)NCc1ccccc1` [compound 60], 0.79 ± 0.1 µM.
Take `C=CCN1CC(=O)N2[C@@H](Cc3ccc(O)cc3)C(=O)N(Cc3cccc(-c4ccc(N5CCOCC5)nc4)c3)C[C@@H]2N1C(=O)NCc1ccccc1` [compound 62]: the 50% inhibitory concentration (IC50) is 0.81 ± 0.15 µM.
Take `C=CCOc1cccc(CN2C[C@H]3N(C(=O)CN(CC=C)N3C(=O)NCc3ccccc3)[C@@H](Cc3ccc(O)cc3)C2=O)c1` [compound 169]: the IC50 turned out to be 2.01 ± 0.34 µM.
On the same count and under the same terms, under `C=CCN1CC(=O)N2[C@@H](Cc3ccc(O)cc3)C(=O)N(Cc3cccc(C(=O)NC)n3)C[C@@H]2N1C(=O)NCc1ccccc1` [compound 48] stands 0.7 ± 0.26 µM; under `C=CCN1CC(=O)N2[C@@H](Cc3ccc(O)cc3)C(=O)N(Cc3ccc(OCC)cc3)C[C@@H]2N1C(=O)NCc1ccccc1` [compound 249], 6.8 ± 1.5 µM.
Consider `C=CCN1CC(=O)N2[C@@H](Cc3ccc(O)cc3)C(=O)N(Cc3cccc(-c4ccc(F)cc4)n3)C[C@@H]2N1C(=O)NCc1ccccc1` [compound 141], for which the IC50 is 1.91 ± 0.28 µM.
Same read-out and setting: under `C=CCN1CC(=O)N2[C@@H](Cc3ccc(O)cc3)C(=O)N(Cc3cccc4ccn(S(=O)(=O)c5ccc(Cl)cc5)c34)C[C@@H]2N1C(=O)NCc1ccccc1` [compound 20] stands 0.43 ± 0.1 µM.
The same measure, in the same setting: under `C=CCN1CC(=O)N2[C@@H](Cc3ccc(O)cc3)C(=O)N(Cc3cccc(-c4cccc(OC)c4)c3)C[C@@H]2N1C(=O)NCc1ccccc1` [compound 137] stands 1.86 ± 0.3 µM; under `C=CCN1CC(=O)N2[C@@H](Cc3ccc(O)cc3)C(=O)N(Cc3cccc(C(=O)OCC)n3)C[C@@H]2N1C(=O)NCc1ccccc1` [compound 194], 2.89 ± 0.5 µM; under `C=CCN1CC(=O)N2[C@@H](Cc3ccc(O)cc3)C(=O)N(Cc3cccc4c(C(=O)C5CC5)cn(S(=O)(=O)c5ccc(C)cc5)c34)C[C@@H]2N1C(=O)NCc1ccccc1` [compound 1], 0.081 ± 0.0086 µM.
The same measure, in the same setting: to `C=CCN1CC(=O)N2[C@@H](Cc3ccc(O)cc3)C(=O)N(Cc3cccc(-c4ccc(N)nc4)c3)C[C@@H]2N1C(=O)NCc1ccccc1` [compound 40] belongs 0.63 ± 0.06 µM; to `C=CCN1CC(=O)N2[C@@H](Cc3ccc(O)cc3)C(=O)N(Cc3ccc4ccn(S(=O)(=O)c5ccc(C)cc5)c4c3)C[C@@H]2N1C(=O)NCc1ccccc1` [compound 174], 2.33 ± 0.64 µM.
Take `C=CCN1CC(=O)N2[C@@H](Cc3ccc(O)cc3)C(=O)N(Cc3ccccc3N(C)Cc3ccccc3)C[C@@H]2N1C(=O)NCc1ccccc1` [compound 128]: the IC50 worked out at 1.61 ± 0.59 µM.
On the same count and under the same terms, under `C=CCN1CC(=O)N2[C@@H](Cc3ccc(O)cc3)C(=O)N(Cc3cccc4ccn(S(=O)(=O)c5ccc(C)cc5)c34)C[C@@H]2N1C(=O)NCc1ccccc1` [compound 64] stands 0.82 ± 0.33 µM.

Staying with this experiment, now noted: Homo sapiens, SW480; read-out: RGA, IC50 (μM) TopF.
Consider `C=CCN1CC(=O)N2[C@@H](Cc3ccc(OP(=O)(O)O)cc3)C(=O)N(Cc3cccc(OCCN4CCOCC4)c3)C[C@@H]2N1C(=O)NCc1ccccc1` [compound 172], for which the IC50 is 2.21 ± 0.35 µM.
On the same count and under the same terms, under `C=CCN1CC(=O)N2[C@@H](Cc3ccc(OP(=O)(O)O)cc3)C(=O)N(Cc3ccccc3N3CCCC3)C[C@@H]2N1C(=O)NCc1ccccc1` [compound 112] stands 1.41 ± 0.21 µM.
The same measure, in the same setting: under `C=CCN1CC(=O)N2[C@@H](Cc3ccc(OP(=O)(O)O)cc3)C(=O)N(Cc3csc4ccccc34)C[C@@H]2N1C(=O)NCc1ccccc1` [compound 35] stands 0.59 ± 0.066 µM; under `C=CCN1CC(=O)N2C(Cc3ccc(OP(=O)(O)O)cc3)C(=O)N(Cc3cccc4sc(N)nc34)C[C@@H]2N1C(=O)NCc1ccccc1` (stereo partly shown) [compound 14], 0.37 ± 0.07 µM.
On the same count and under the same terms, under `C=CCN1CC(=O)N2[C@@H](Cc3ccc(O)cc3)C(=O)N(Cc3cccc4cc[nH]c34)C[C@@H]2N1C(=O)NCc1ccccn1` [compound 205] stands 3.14 ± 0.68 µM.
For the compound `C=CCN1CC(=O)N2[C@@H](Cc3ccc(OP(=O)(O)O)cc3)C(=O)N(Cc3cccc(N4CCCC4=O)c3)C[C@@H]2N1C(=O)NCc1ccccc1` [compound 94], the IC50 was 1.09 ± 0.16 µM.
Still for that read-out and setting: under `C=CCN1CC(=O)N2[C@@H](Cc3ccc(OP(=O)(O)O)cc3)C(=O)N(Cc3ccc(F)c4scnc34)C[C@@H]2N1C(=O)NCc1ccc2c(c1)OCO2` [compound 77] stands 0.94 ± 0.07 µM; under `C=CCN1CC(=O)N2[C@@H](Cc3ccc(OC(N)=O)cc3)C(=O)N(Cc3ccc(F)cc3F)C[C@@H]2N1C(=O)NCc1ccccc1` [compound 251], 1.14 ± 0.07 µM.

The same experiment, now with this note: TopFlash reporter gene assay, inhibition of Wnt signaling; read-out: RGA, IC50 (μM) TopF.
`C=CCN1CC(=O)N2[C@@H](Cc3ccc(O)cc3)C(=O)N(Cc3cccc(-c4nccs4)c3)C[C@@H]2N1C(=O)NCc1ccccc1` [compound 133]: the IC50 worked out at 1.73 ± 0.22 µM.
